Source: PubChem BioAssay AID248 (DTP/NCI, 2004)
Where “and” joins values, the source holds several entries; their conditions need not be identical. Equal entries are not always repeated. Toxic doses and inconclusive results are not listed. Cut-off read from the data, not from the text of the source: active = T/C of 150% or more; inactive = T/C below 125%.

Test system: L1210 leukemia ip in BDF1 mice, survival T/C
Assay: NCI In Vivo Anticancer Drug Screen. Data for tumor model L1210 Leukemia (intraperitoneal) in B6D2F1 (BDF1) mice
Conditions: endpoint: mean survival time, higher = longer survival
Outline: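 Survival endpoint. Drug-treated group vs vehicle group, expressed as T divided by C. Tumor passaged by transplantation.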

[1] = dose: 50.0 mg/kg/injection, schedule: Q01DX009 (ip), vehicle: saline with Tween-80
[2] = dose: 100.0 mg/kg/injection, schedule: Q01DX009 (ip), vehicle: saline with Tween-80
[3] = dose: 100.0 mg/kg/injection, schedule: Q04DX003 (ip), vehicle: saline with Tween-80
[4] = dose: 200.0 mg/kg/injection, schedule: Q01DX009 (ip), vehicle: saline with Tween-80
[5] = dose: 400.0 mg/kg/injection, schedule: Q04DX003 (ip), vehicle: saline with Tween-80
[6] = dose: 100.0 mg/kg/injection, schedule: Q01DX001 (ip), vehicle: Klucel (hydroxypropylcellulose) (HPC)
[7] = dose: 200.0 mg/kg/injection, schedule: Q01DX001 (ip), vehicle: Klucel (hydroxypropylcellulose) (HPC)
[8] = dose: 400.0 mg/kg/injection, schedule: Q01DX001 (ip), vehicle: Klucel (hydroxypropylcellulose) (HPC)
[9] = dose: 100.0 mg/kg/injection, schedule: Q04DX002 (ip), vehicle: Klucel (hydroxypropylcellulose) (HPC)

Measured: T/C

Cc1ccc([I+]c2ccc(C)c(C)c2)cc1C
inactive: dose: 1.0 mg/kg/injection, schedule: Q01DX001 (ip), vehicle: acetone 102 % of control | dose: 2.0 mg/kg/injection, schedule: Q01DX001 (ip), vehicle: acetone 98 % of control | dose: 4.0 mg/kg/injection, schedule: Q01DX001 (ip), vehicle: acetone 105 % of control | dose: 5.9 mg/kg/injection, schedule: Q01DX001 (ip), vehicle: saline 103 % of control | dose: 9.0 mg/kg/injection, schedule: Q01DX001 (ip), vehicle: saline 97 % of control | dose: 13.0 mg/kg/injection, schedule: Q01DX001 (ip), vehicle: saline 100 % of control | dose: 19.0 mg/kg/injection, schedule: Q01DX001 (ip), vehicle: saline 102 % of control | dose: 29.0 mg/kg/injection, schedule: Q01DX001 (ip), vehicle: saline 101 % of control | dose: 45.0 mg/kg/injection, schedule: Q01DX001 (ip), vehicle: saline 98 % of control | dose: 65.0 mg/kg/injection, schedule: Q01DX001 (ip), vehicle: saline with Tween-80 96 % of control | dose: 100.0 mg/kg/injection, schedule: Q01DX001 (ip), vehicle: saline with Tween-80 97 % of control | dose: 150.0 mg/kg/injection, schedule: Q01DX001 (ip), vehicle: saline with Tween-80 94 % of control | dose: 225.0 mg/kg/injection, schedule: Q01DX001 (ip), vehicle: saline with Tween-80 102 % of control | dose: 340.0 mg/kg/injection, schedule: Q01DX001 (ip), vehicle: saline with Tween-80 96 % of control

Cc1ccc(NC(=O)NCCOc2ccc(Br)cc2)c([N+](=O)[O-])c1
inactive: [1] 98 % of control | [2] 95 % of control | [3] 92 % of control | [4] 95 % of control | dose: 200.0 mg/kg/injection, schedule: Q04DX003 (ip), vehicle: saline with Tween-80 91 % of control | [5] 100 % of control

Cc1ccc(S(=O)(=O)NC(C)(C)CNc2ncnc(Cl)c2N)cc1
inactive: dose: 9.5 mg/kg/injection, schedule: Q01DX001 (ip), vehicle: other 101 % of control | dose: 19.0 mg/kg/injection, schedule: Q01DX001 (ip), vehicle: other 96 % of control

Cc1cccc(C)c1/[N+]([O-])=C/c1ccc(Cl)cc1
inactive: [6] 101 % of control | [7] 98 % of control | [8] 108 % of control

C/C(CC(=O)N1CCCCC1)=N\NC(N)=S
inactive: dose: 100.0 mg/kg/injection, schedule: Q01DX001 (ip), vehicle: carboxymethylcellulose (CMC) 97 % of control | dose: 200.0 mg/kg/injection, schedule: Q01DX001 (ip), vehicle: carboxymethylcellulose (CMC) 103 % of control | dose: 400.0 mg/kg/injection, schedule: Q01DX001 (ip), vehicle: carboxymethylcellulose (CMC) 94 % of control

CC(C)(C)NNC(=O)c1ccccc1
inactive: dose: 75.0 mg/kg/injection, schedule: Q04DX003 (ip), vehicle: saline with Tween-80 106 % of control

O=C(O)CCCC(=O)NC1CC2c3ccccc3C1c1ccccc12 (centres undefined)
inactive: dose: 100.0 mg/kg/injection, schedule: Q01DX009 (ip), vehicle: saline sonified 101 % of control | dose: 100.0 mg/kg/injection, schedule: Q04DX003 (ip), vehicle: Klucel (hydroxypropylcellulose) (HPC) 94 % of control | dose: 200.0 mg/kg/injection, schedule: Q01DX009 (ip), vehicle: saline sonified 100 % of control | dose: 200.0 mg/kg/injection, schedule: Q04DX003 (ip), vehicle: Klucel (hydroxypropylcellulose) (HPC) 96 % of control | dose: 400.0 mg/kg/injection, schedule: Q01DX009 (ip), vehicle: saline sonified 100 % of control | dose: 400.0 mg/kg/injection, schedule: Q04DX003 (ip), vehicle: Klucel (hydroxypropylcellulose) (HPC) 91 % of control

c1ccc(-c2cc(-c3ccccc3)c3c([o+]2)CCCCCCCCCCCC3)cc1
inactive: [1] 108 % of control | [2] 108 % of control | [4] 97 % of control

CCC(C)CNC(C)=O (centres undefined)
inactive: dose: 100.0 mg/kg/injection, schedule: Q04DX003 (ip), vehicle: saline 109 % of control | dose: 200.0 mg/kg/injection, schedule: Q04DX003 (ip), vehicle: saline 106 % of control | dose: 400.0 mg/kg/injection, schedule: Q04DX003 (ip), vehicle: saline 109 % of control

OCCOc1nc(Cl)nc(Cl)c1Cl (tested in a mixture with another compound)
inactive: dose: 12.5 mg/kg/injection, schedule: Q01DX009 (ip), vehicle: Klucel (hydroxypropylcellulose) (HPC) 110 % of control | dose: 25.0 mg/kg/injection, schedule: Q01DX009 (ip), vehicle: Klucel (hydroxypropylcellulose) (HPC) 96 % of control | dose: 50.0 mg/kg/injection, schedule: Q01DX009 (ip), vehicle: Klucel (hydroxypropylcellulose) (HPC) 100 % of control and 91 % of control

CC(=O)[O][Sn]([c]1ccccc1)([c]1ccccc1)[c]1ccccc1
inactive: dose: 0.39 mg/kg/injection, schedule: Q01DX009 (ip), vehicle: saline with Tween-80 98 % of control | dose: 0.78 mg/kg/injection, schedule: Q01DX009 (ip), vehicle: saline with Tween-80 93 % of control | dose: 1.0 mg/kg/injection, schedule: Q01DX015 (ip), vehicle: saline 97 % of control | dose: 1.56 mg/kg/injection, schedule: Q01DX009 (ip), vehicle: saline with Tween-80 106 % of control | dose: 1.56 mg/kg/injection, schedule: Q04DX003 (ip), vehicle: saline 106 % of control | dose: 2.0 mg/kg/injection, schedule: Q01DX015 (ip), vehicle: saline 89 % of control | dose: 2.33 mg/kg/injection, schedule: Q01DX009 (ip), vehicle: saline with Tween-80 105 % of control | dose: 3.54 mg/kg/injection, schedule: Q01DX009 (ip), vehicle: saline with Tween-80 100 % of control

Cc1ccnc(NS(=O)(=O)c2ccc(N=[N+]=[N-])cc2)n1
inactive: dose: 100.0 mg/kg/injection, schedule: Q01DX009 (ip), vehicle: carboxymethylcellulose (CMC) 92 % of control and 91 % of control | dose: 100.0 mg/kg/injection, schedule: Q04DX002 (ip), vehicle: carboxymethylcellulose (CMC) 98 % of control | dose: 200.0 mg/kg/injection, schedule: Q01DX009 (ip), vehicle: carboxymethylcellulose (CMC) 95 % of control | dose: 200.0 mg/kg/injection, schedule: Q04DX002 (ip), vehicle: carboxymethylcellulose (CMC) 93 % of control and 98 % of control | dose: 400.0 mg/kg/injection, schedule: Q01DX009 (ip), vehicle: carboxymethylcellulose (CMC) 97 % of control and 102 % of control | dose: 400.0 mg/kg/injection, schedule: Q04DX002 (ip), vehicle: carboxymethylcellulose (CMC) 101 % of control and 105 % of control

O=[N+]([O-])c1cccc(S(=O)(=O)Oc2ccccc2)c1
inactive: dose: 100.0 mg/kg/injection, schedule: Q01DX009 (ip), vehicle: Klucel (hydroxypropylcellulose) (HPC) 102 % of control | dose: 200.0 mg/kg/injection, schedule: Q01DX009 (ip), vehicle: Klucel (hydroxypropylcellulose) (HPC) 95 % of control | dose: 400.0 mg/kg/injection, schedule: Q01DX009 (ip), vehicle: Klucel (hydroxypropylcellulose) (HPC) 101 % of control

COC(=O)C1CNN=C1C(=O)N1Cc2cc3ccccc3nc2C1 (centres undefined)
inactive: dose: 10.0 mg/kg/injection, schedule: Q04DX003 (ip), vehicle: saline 94 % of control | dose: 20.0 mg/kg/injection, schedule: Q04DX003 (ip), vehicle: saline 97 % of control | dose: 40.0 mg/kg/injection, schedule: Q04DX003 (ip), vehicle: saline 91 % of control | dose: 80.0 mg/kg/injection, schedule: Q04DX003 (ip), vehicle: saline 97 % of control | dose: 160.0 mg/kg/injection, schedule: Q04DX003 (ip), vehicle: saline 99 % of control

CC1(C(Cl)(Cl)Cl)C=CC(=NOCC(=O)O)C=C1 (centres undefined)
inactive: [9] 98 % of control | dose: 200.0 mg/kg/injection, schedule: Q04DX002 (ip), vehicle: Klucel (hydroxypropylcellulose) (HPC) 95 % of control | dose: 400.0 mg/kg/injection, schedule: Q04DX002 (ip), vehicle: Klucel (hydroxypropylcellulose) (HPC) 98 % of control

CC(=O)Nc1ccc(/C=N/NC(N)=S)cc1
inactive: dose: 100.0 mg/kg/injection, schedule: Q04DX013 (ip), vehicle: carboxymethylcellulose (CMC) 94 % of control | dose: 200.0 mg/kg/injection, schedule: Q04DX013 (ip), vehicle: carboxymethylcellulose (CMC) 98 % of control

COc1cc(OC)c(OC)cc1/C=C/c1cc[n+](C)c2ccccc12
inactive: dose: 25.0 mg/kg/injection, schedule: Q04DX002 (ip), vehicle: Klucel (hydroxypropylcellulose) (HPC) 95 % of control | dose: 50.0 mg/kg/injection, schedule: Q04DX002 (ip), vehicle: Klucel (hydroxypropylcellulose) (HPC) 101 % of control | [9] 109 % of control and 111 % of control

O=C1CCCCCCCCCOC(=O)CCCCCCCCCO1
inactive: [6] 94 % of control | [7] 94 % of control | [8] 91 % of control

CC(NC(=O)OCc1ccccc1)C(=O)NC(Cc1ccccc1)C(=O)OCc1ccccc1 (centres undefined)
inactive: [3] 95 % of control | [5] 91 % of control
